According to PubChem BioAssay (NCI):
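Briefly, cells in 96-well plates were exposed to five compound concentrations for 48 h, and endpoints were estimated by linear interpolation. At the TGI there is no net growth.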

test system: U251 CNS; experiment: NCI tumour cell line growth inhibition, 48 h

`CC(C)Oc1ccc2c(c1)OCC1Cc3ccccc3OC21` (configuration not stated) and `COC(=O)C(NC(=O)c1ccccc1)c1ccco1` (configuration not stated) cannot be ordered by TGI: over 100 µM for the first, over 100 µM for the second.

Compared with `O=C1C(Cl)C(c2cccc(Cl)c2)N1c1ccc(-n2c(=S)[nH]c3ccccc3c2=O)cc1` (configuration not stated), `COc1ccc(N2C(=O)C3ON(C(C(N)=O)c4ccccc4)C(c4cc5ccccc5c5ccccc45)C3C2=O)cc1` (configuration not stated) is higher in TGI: 27.9 µM for the first, over 50 µM for the second.

`COc1cc2c(cc1OC)CCc1cc(OC)c(OC)cc1CC2` and `COc1ccccc1N1CCN(CCCN2/C(=C(\O)c3ccccc3)C(=O)c3c(C)cc(C)nc3S2(=O)=O)CC1` cannot be ordered by TGI: over 100 µM for the first, over 100 µM for the second.

`c1csc(-c2cc(-c3cccs3)c(-c3ccsc3)s2)c1` and `CN1C2CCC1CC(CCNC(c1ccccc1)c1ccccc1)C2` (configuration not stated) cannot be ordered by TGI: over 100 µM for the first, over 100 µM for the second.

Compared with `NC(CCC(=O)O)C(=O)N1CCN(c2nc(N3CCCC3)c3nc(Cl)c(NCc4ccccc4)nc3n2)CC1` (configuration not stated), `c1ccc2c(c1)nc1n2CNC1` is higher in TGI: 30.2 µM for the first, over 100 µM for the second.

`CC1ON2CCCC2[C@H]1C(=O)N1C2CC3CCC2(CS1(=O)=O)C3(C)C` (some centres not stated) and `NNc1nncc2n[nH]nc12` cannot be ordered by TGI: over 100 µM for the first, over 100 µM for the second.

test system: SK-MEL-2 melanoma; experiment: NCI tumour cell line growth inhibition, 48 h

Compared with `Cc1ccc(N=Nc2c(C)c(C#N)c(=S)n(C3OC(CO)C(O)C(O)C3O)c2C)cc1` (configuration not stated), `Cc1cc(C)n(C2OC(CO)C(O)C(O)C2O)c(=S)c1C#N` (configuration not stated) is higher in TGI: 89.7 µM for the first, over 100 µM for the second.

Compared with `COc1cc(/C=C2\N=C(c3ccccc3)N(c3nc4c(OC)ccc(OC)c4s3)C2=O)ccc1O`, `COC(=O)C1C(=O)C=CN([C@H](C)c2ccccc2)[C@@H]1Cc1ccc(OC)c(OCc2ccccc2)c1I` (some centres not stated) is lower in TGI: over 100 µM for the first, 40 µM for the second.

`O=C(Cc1ccccc1)N/N=C/c1ccccc1O` and `O=c1[nH]nc(Cc2ccccc2)[nH]1` cannot be ordered by TGI: over 100 µM for the first, over 100 µM for the second.

Compared with `CC(C)=CC(=O)C[C@H]1C(=O)O[C@@H]2C[C@H]3C(C)=CC(=O)[C@@H](O)[C@]3(C)[C@H]3[C@@]4(O)OC[C@]32[C@@H]1[C@@H](C)[C@H]4O`, `CC1ON2CCCC2[C@H]1C(=O)N1C2CC3CCC2(CS1(=O)=O)C3(C)C` (some centres not stated) is higher in TGI: 0.274 µM for the first, over 100 µM for the second.

First: CN(C)CCCN1c2ccccc2Sc2cnccc21
Second: COc1ccccc1N1CCN(CCCN2/C(=C(\O)c3ccccc3)C(=O)c3c(C)cc(C)nc3S2(=O)=O)CC1
The TGI of the first is lower: 94 µM for the first, over 100 µM for the second.

`COc1ccc(C2C3=C(Nc4ncnn42)c2ccccc2OC3c2ccccc2)cc1` (configuration not stated) and `COc1ccc(N2C(=O)C3ON(C(C(N)=O)c4ccccc4)C(c4cc5ccccc5c5ccccc45)C3C2=O)cc1` (configuration not stated) cannot be ordered by TGI: 53.9 µM for the first, over 50 µM for the second.

`COC(=O)C(COC(C)=O)NC(=O)/C=C/c1ccc(O)c(OC(C)=O)c1` (configuration not stated) and `CC(C)Oc1ccc2c(c1)OCC1Cc3ccccc3OC21` (configuration not stated) cannot be ordered by TGI: over 100 µM for the first, over 100 µM for the second.

First: CCOP(=O)(CN1CCNCCNCC1)OCC
Second: NC(CCC(=O)O)C(=O)N1CCN(c2nc(N3CCCC3)c3nc(Cl)c(NCc4ccccc4)nc3n2)CC1 (configuration not stated)
The TGI of the first is higher: over 100 µM for the first, 31.5 µM for the second.

`CN(/N=C/c1ccc(OCc2cccc(COc3ccc(C=O)cc3)n2)cc1)c1cnn(-c2ccc(Cl)cc2Cl)c(=O)c1Cl` and `c1csc(-c2cc(-c3cccs3)c(-c3ccsc3)s2)c1` cannot be ordered by TGI: over 100 µM for the first, over 100 µM for the second.

`COc1cc2c(cc1OC)CCc1cc(OC)c(OC)cc1CC2` and `c1ccc2c(c1)nc1n2CNC1` cannot be ordered by TGI: over 100 µM for the first, over 100 µM for the second.

Compared with `CN1C2CCC1CC(CCNC(c1ccccc1)c1ccccc1)C2` (configuration not stated), `NNc1nncc2n[nH]nc12` is higher in TGI: 31.4 µM for the first, over 100 µM for the second.

test system: SK-OV-3 ovarian; experiment: NCI tumour cell line growth inhibition, 48 h

`CCOC(=O)CN=C1NNS(=O)(=O)c2ccccc21` and `COC(=O)C(NC(=O)c1ccccc1)c1ccco1` (configuration not stated) cannot be ordered by TGI: over 100 µM for the first, over 100 µM for the second.

Compared with `Cc1ccc(N=Nc2c(C)c(C#N)c(=S)n(C3OC(CO)C(O)C(O)C3O)c2C)cc1` (configuration not stated), `CC(C)=CC(=O)C[C@H]1C(=O)O[C@@H]2C[C@H]3C(C)=CC(=O)[C@@H](O)[C@]3(C)[C@H]3[C@@]4(O)OC[C@]32[C@@H]1[C@@H](C)[C@H]4O` is lower in TGI: over 100 µM for the first, 4.98 µM for the second.

`COc1cc(/C=C2\N=C(c3ccccc3)N(c3nc4c(OC)ccc(OC)c4s3)C2=O)ccc1O` and `COC(=O)C1C(=O)C=CN([C@H](C)c2ccccc2)[C@@H]1Cc1ccc(OC)c(OCc2ccccc2)c1I` (some centres not stated) cannot be ordered by TGI: over 100 µM for the first, over 100 µM for the second.

`O=C(Cc1ccccc1)N/N=C/c1ccccc1O` and `CN1C2CCC1CC(CCNC(c1ccccc1)c1ccccc1)C2` (configuration not stated) cannot be ordered by TGI: over 100 µM for the first, over 100 µM for the second.

`CN(C)CCCN1c2ccccc2Sc2cnccc21` and `COc1ccccc1N1CCN(CCCN2/C(=C(\O)c3ccccc3)C(=O)c3c(C)cc(C)nc3S2(=O)=O)CC1` cannot be ordered by TGI: over 100 µM for the first, over 100 µM for the second.

`COc1ccc(C2C3=C(Nc4ncnn42)c2ccccc2OC3c2ccccc2)cc1` (configuration not stated) and `COc1ccc(N2C(=O)C3ON(C(C(N)=O)c4ccccc4)C(c4cc5ccccc5c5ccccc45)C3C2=O)cc1` (configuration not stated) cannot be ordered by TGI: over 100 µM for the first, over 50 µM for the second.

Compared with `C/C=C(/C)C(=O)O[C@H]1C[C@@H]2[C@@H](O)c3occ(C)c3C[C@]2(C)[C@@H](C)C1`, `CC1ON2CCCC2[C@H]1C(=O)N1C2CC3CCC2(CS1(=O)=O)C3(C)C` (some centres not stated) is higher in TGI: 30.9 µM for the first, over 100 µM for the second.

`COC(=O)C(COC(C)=O)NC(=O)/C=C/c1ccc(O)c(OC(C)=O)c1` (configuration not stated) and `CC(C)Oc1ccc2c(c1)OCC1Cc3ccccc3OC21` (configuration not stated) cannot be ordered by TGI: over 100 µM for the first, over 100 µM for the second.

Compared with `CCOP(=O)(CN1CCNCCNCC1)OCC`, `NC(CCC(=O)O)C(=O)N1CCN(c2nc(N3CCCC3)c3nc(Cl)c(NCc4ccccc4)nc3n2)CC1` (configuration not stated) is lower in TGI: over 100 µM for the first, 32.9 µM for the second.

First: O=C1C(Cl)C(c2cccc(Cl)c2)N1c1ccc(-n2c(=S)[nH]c3ccccc3c2=O)cc1 (configuration not stated)
Second: c1csc(-c2cc(-c3cccs3)c(-c3ccsc3)s2)c1
The TGI of the first is lower: 72.5 µM for the first, over 100 µM for the second.

`COc1cc2c(cc1OC)CCc1cc(OC)c(OC)cc1CC2` and `c1ccc2c(c1)nc1n2CNC1` cannot be ordered by TGI: over 100 µM for the first, over 100 µM for the second.

test system: SR leukemia; experiment: NCI tumour cell line growth inhibition, 48 h

Compound `CCOC(=O)CN=C1NNS(=O)(=O)c2ccccc21` has a TGI of over 100 µM.
